Earlier results as cited in paper PMC7904743, “WIDOCK: a reactive docking protocol for virtual screening of covalent inhibitors” (Journal of Computer-Aided Molecular Design, 2021).
Where two headings read alike, the source gives them in different places.

Columns and labels:
OTUB2 = settings: experimental actives if % labeling higher than 50%; cited from earlier work
NUDT7 = settings: protein labeling at 200 μM; experimental actives if % labeling higher than 50%; cited from earlier work
[1] = thiol reactivity, cited from earlier work
[2] = natural log of average rate constant k
[3] = natural logarithm of average rate constant
[4] = natural log of average rate constant

| Structure (SMILES) | OTUB2 % labeling (OTUB2) [%] | NUDT7 % labeling (NUDT7) [%] | ln(avg k) [1, 2] | ln(avg k) [1, 3] | ln(avg k) [1, 4] |
| --- | --- | --- | --- | --- | --- |
| Cc1cc(N2CCN(C(=O)CCl)CC2)nc(C(C)C)n1 [PCM-0102638, Cc1cc(N2CCN(C(=O)CCl)CC2)nc(C(C)C)n1] | 0 | 0 | -16.816 | -16.816 | – |
| COc1ccc(NC(=O)CCl)cc1Cl [PCM-0102652, COc1ccc(NC(=O)CCl)cc1Cl] | 24 | 12 | -15.680 | -15.680 | – |
| O=C(CCl)Nc1cccnc1 [PCM-0102653, O=C(CCl)Nc1cccnc1] | 0 | 0 | -16.863 | -16.863 | – |
| CCNC(=O)NC(=O)CCl [PCM-0102654, CCNC(=O)NC(=O)CCl] | 0 | 0 | -16.588 | -16.588 | – |
| O=C(CCl)N1CCC(C(=O)N2CCCC2)CC1 [PCM-0102655, O=C(CCl)N1CCC(C(=O)N2CCCC2)CC1] | 0 | 0 | -15.795 | -15.795 | – |
| CCOC(=O)C1CCN(C(=O)CCl)CC1 [PCM-0102656, CCOC(=O)C1CCN(C(=O)CCl)CC1] | 0 | 0 | -15.523 | -15.523 | – |
| O=C(CCl)Nc1ccccc1 [PCM-0102658, O=C(CCl)Nc1ccccc1] | 0 | 0 | -16.281 | -16.281 | – |
| O=C(CCl)N1N=C(c2ccco2)CC1c1ccsc1 (centres unmarked) [PCM-0102659, O=C(CCl)N1N=C(c2ccco2)CC1c1ccsc1] | 0 | 39 | -14.828 | -14.828 | – |
| Cc1ccc(CNC(=O)CCl)cc1 [PCM-0102660, Cc1ccc(CNC(=O)CCl)cc1] | 63 | 0 | -16.571 | -16.571 | – |
| O=C(CCl)Nc1ccc2c(c1)CCC2 [PCM-0102662, O=C(CCl)Nc1ccc2c(c1)CCC2] | 14 | 12 | -16.202 | -16.202 | – |
| CC1CCCC(NC(=O)CCl)C1C (centres unmarked) [PCM-0102663, CC1CCCC(NC(=O)CCl)C1C] | 29 | 0 | -16.862 | -16.862 | – |
| CC(C#N)(NC(=O)CCl)C1CC1 (centres unmarked) [PCM-0102664, CC(C#N)(NC(=O)CCl)C1CC1] | 0 | 0 | -16.170 | -16.170 | – |
| Cc1cc(NC(=O)CCl)n(-c2ccc(F)cc2)n1 [PCM-0102665, Cc1cc(NC(=O)CCl)n(-c2ccc(F)cc2)n1] | 53 | 0 | -15.905 | -15.905 | – |
| CC1CCC2(CC1)NC(=O)N(NC(=O)CCl)C2=O (centres unmarked) [PCM-0102666, CC1CCC2(CC1)NC(=O)N(NC(=O)CCl)C2=O] | 0 | 0 | -17.364 | -17.364 | – |
| CN(C(=O)CCl)c1ccc([N+](=O)[O-])cc1 [PCM-0102669, CN(C(=O)CCl)c1ccc([N+](=O)[O-])cc1] | 0 | 14 | -15.479 | -15.479 | – |
| O=C(CCl)Nc1ccc(N2CCCC2)cc1 [PCM-0102670, O=C(CCl)Nc1ccc(N2CCCC2)cc1] | 48 | 0 | -13.297 | -13.297 | – |

| Structure (SMILES) | OTUB2 % labeling (OTUB2) [%] | NUDT7 % labeling (NUDT7) [%] | ln(avg k) [1, 2] | ln(avg k) [1, 3] | ln(avg k) [1, 4] |
| --- | --- | --- | --- | --- | --- |
| O=C(CCl)NCc1ccco1 [PCM-0102671, O=C(CCl)NCc1ccco1] | 35 | 0 | -16.464 | -16.464 | – |
| CN(Cc1ccco1)C(=O)CCl [PCM-0102672, CN(Cc1ccco1)C(=O)CCl] | 0 | 10 | -15.763 | -15.763 | – |
| O=C(CCl)N1CCCC(C(F)(F)F)C1 (centres unmarked) [PCM-0102676, O=C(CCl)N1CCCC(C(F)(F)F)C1] | 0 | 14 | -15.616 | -15.616 | – |
| CN(Cc1cc(Cl)cc(Cl)c1)C(=O)CCl [PCM-0102678, CN(Cc1cc(Cl)cc(Cl)c1)C(=O)CCl] | 0 | 45 | -15.789 | -15.789 | – |
| O=C(CCl)N1CCCC1c1ccsc1 (centres unmarked) [PCM-0102693, O=C(CCl)N1CCCC1c1ccsc1] | 0 | 20 | -15.634 | -15.634 | – |
| O=C(CCl)Nc1cccc(C(=O)O)c1 [PCM-0102696, O=C(CCl)Nc1cccc(C(=O)O)c1] | 11 | 0 | -16.586 | -16.586 | – |
| CC1CC(=O)Nc2ccccc2N1C(=O)CCl (centres unmarked) [PCM-0102697, CC1CC(=O)Nc2ccccc2N1C(=O)CCl] | 0 | 22 | -15.686 | -15.686 | – |
| O=C(CCl)Nc1nc2ccccc2s1 [PCM-0102698, O=C(CCl)Nc1nc2ccccc2s1] | 7 | 83 | -15.845 | -15.845 | – |
| Cc1cc(NC(=O)CCl)n(-c2ccccc2C)n1 [PCM-0102699, Cc1cc(NC(=O)CCl)n(-c2ccccc2C)n1] | 0 | 0 | -15.949 | -15.949 | – |
| N#Cc1ccc(Cl)cc1NC(=O)CCl [PCM-0102700, N#Cc1ccc(Cl)cc1NC(=O)CCl] | 17 | 40 | -16.148 | -16.148 | – |
| CCCNC(=O)NC(=O)CCl [PCM-0102702, CCCNC(=O)NC(=O)CCl] | 22 | 0 | -16.357 | -16.357 | – |
| CN(C(=O)CCl)C1CCCc2ccccc21 (centres unmarked) [PCM-0102703, CN(C(=O)CCl)C1CCCc2ccccc21] | 0 | 30 | – | -15.771 | -15.771 |
| O=C(CCl)N1CCN(S(=O)(=O)c2ccc(Cl)cc2)CC1 [PCM-0102704, O=C(CCl)N1CCN(S(=O)(=O)c2ccc(Cl)cc2)CC1] | 0 | 25 | – | -15.137 | -15.137 |
| O=C(CCl)NCC12CC3CC(CC(C3)C1)C2 [PCM-0102706, O=C(CCl)NCC12CC3CC(CC(C3)C1)C2] | 65 | 0 | – | -16.508 | -16.508 |
| Cc1ccccc1CN(C)C(=O)CCl [PCM-0102707, Cc1ccccc1CN(C)C(=O)CCl] | 0 | 13 | – | -15.717 | -15.717 |
| C=CCNC(=O)NC(=O)CCl [PCM-0102709, C=CCNC(=O)NC(=O)CCl] | 0 | 0 | – | -16.210 | -16.210 |
